The subject of one data set is A. niger. As to the kind of experiment: accelerated shelf-life testing (ASLT): time of appearance (TOA) of A. niger on inoculated breadcrumbs. It is filed as cell-based, Aspergillus niger. As for the experimental part:
(§1) Breads were made by mixing the dough ingredients from Table 1. The wt.% for several ingredients are given based on flour weight (Flour Weight Based, FWB). For the prepared recipes the difference with total dry weight is insubstantial. The following breads were prepared: a control without any preservatives, a reference containing 0.3% flour weight based (FWB) calcium propionate (CalPro), and a bread containing 1% chitosan (KitoZyme, Belgium) with number average MW of 15 kDa and degree of deacetylation (DDA) of 70%. The chitosan sample was obtained from cell wall of A. niger (KitoZyme, Belgium). Ingredients were mixed using a spiral mixer for 10 minutes. Afterwards the dough for each trial was divided into three pieces of 520 g, rounded manually, and placed into bread tins. The dough pieces were placed in a proofing cabinet to rise at 40 °C and 80% relative humidity until they reach similar height (fermentation time between 60-70 min). The breads were baked for 22 minutes in a deck oven at 260 (bottom) and 230 (top) °C. [Table 1] Bread recipes
(§2) Following baking, the breads were cooled in a HEPA-filtered chamber for 90 min. One bread was used for pH measurement and two breads were subjected to ASLT.
To perform ASLT, the remaining two breads were sliced to 13 mm slices. The crumb (inner part of breads) of three random slices from each bread were cut out using a cookie cutter (3.2 cm diameter) and placed in sterile 6-well plates (2x breads x 3 slices). Two 6-well plates were prepared per bread type. Each bread piece in a 6-well plate was inoculated with 3 aliquots of ±500 spores ([…]) of either A. niger or P. paneum. Therefore, 18 spots of each mould were inoculated per trial (6 bread piece × 3 aliquots). Freeze-dried spores were used in all experiments. The inoculated breads incubated at room temperature of around 21 °C until visible mould appearance. The appearance of the moulds was imaged by taking photographs. The images were inspected visually, and the TOA was defined as mould appearance in hours after mould inoculation. […]

The test system of the next data set is P. paneum. In words: accelerated shelf-life testing (ASLT): time of appearance (TOA) and growth pattern of P. paneum on inoculated breadcrumbs. It is filed as cell-based, Penicillium paneum. As to conditions: CalPro 0.3% FWB; tin bread crumb, ±500 spores; Figure 1. On the procedure:
as §1, §2
To perform ASLT, the remaining two breads were sliced to 13 mm slices. […]

For data set [1] the following is noted: cited from earlier work.

Regarding `CCC(=O)[O-].CCC(=O)[O-].[Ca+2]` [CalPro, calcium propionate], the “effectiveness against A. niger, CalPro compared to chitosan” value with A. niger (CalPro 0.3% FWB vs chitosan 1% FWB) was “more effective against A. niger”. Moreover, the “increased TOA of A. niger compared to control bread without preservatives” value in the data set with A. niger (CalPro 0.3% FWB, tin bread crumb, ±500 spores, Figure 1A) came to 80%. Also, in the data set with A. niger (CalPro alone 0.3% FWB, Figure 2 A-B), the “increase in TOA of A. niger compared to control without preservative” value was “approximately 50%”. Also, the “increased TOA of P. paneum compared to control bread without preservatives” value in the data set on P. paneum was determined as 17%.
`CC(O)C(=O)O` (stereo not drawn) [lactic acid]: the pKa result in data set [1] is recorded as “about 3.85”.
Take `C/C=C/C=C/C(=O)O` [sorbic acid]: the pKa result in data set [1] was “about 4.76”.

(Values after patent EP4516107A1, “CHITOSAN AND ORGANIC ACID HAVING A PKA OF 4 OR MORE, OR A SALT THEREOF IN BAKERY PRODUCTS” (Mauri Technology B.V., priority 2023, dated 2025).)
